Measured values as given in patent US8158792B2, “Spiropiperidines for use as tryptase inhibitors” (Janssen Pharmaceutica N.V., priority 2007, dated 2012).
pIC50: −log10 of the molar value.

Biological target: human lung tryptase
Test: β-Tryptase In-Vitro Enzyme Assay
Format: biochemical
Settings: human lung tryptase 1 nM, substrate H-D-HHT-Ala-Arg-pNa 500 μM, pH 7.4, room temperature
Procedure: The β-tryptase assay was conducted with human lung tryptase (Cortex Biochem #CP3033) in an aqueous buffer (10 mM Tris, 10 mM Hepes, 150 mM NaCl, 0.1% PEG 8000, pH 7.4) using the chromogenic substrate H-D-HHT-Ala-Arg-pNa. […] Percent inhibition was calculated by comparing the initial reaction velocity of samples without inhibitor to those with inhibitor. The initial reaction velocities were analyzed using Microsoft Excel.

## NCc1ccc2c(c1)C1(CCN(C(=O)c3ccc4ncsc4c3)CC1)CO2 [Cpd 16, 1-benzothiazol-6-ylcarbonyl-5′-aminomethyl-spiro[piperidine-4,3′-(2H)-benzo[b]furan]]
  pIC50: 6.37

## NCc1ccc2c(c1)C1(CCN(C(=O)c3ccc(-n4cc(-c5nc6ccccc6o5)cn4)cc3)CC1)CO2 [Cpd 17, 1-{4-[(4-benzoxazol-2-yl)-pyrazol-1-yl]-phenyl}carbonyl-5′-aminomethyl-spiro[piperidine-4,3′-(2H)-benzo[b]furan]]
  pIC50: 6.54

## NCc1ccc2c(c1)C1(CCN(C(=O)c3cccc(NS(=O)(=O)c4ccccc4)c3)CC1)CO2 [Cpd 18, 1-(3-phenylsulfonylamino-phenyl)carbonyl-5′-aminomethyl-spiro[piperidine-4,3′-(2H)-benzo[b]furan]]
  pIC50: 5.48

## NCc1ccc2c(c1)C1(CCN(C(=O)c3cccc(NC(=O)Cc4cccs4)c3)CC1)CO2 [Cpd 19, 1-(3-thien-2-ylmethylcarbonylamino-phenyl)carbonyl-5′-aminomethyl-spiro[piperidine-4,3′-(2H)-benzo[b]furan]]
  pIC50: 6.25

## NCc1ccc2c(c1)C1(CCN(C(=O)c3cccc(-c4ccc5c(c4)OCO5)c3)CC1)CO2 [Cpd 20, 1-(3-benzodioxol-5-yl-phenyl)carbonyl-5′-aminomethyl-spiro[piperidine-4,3′-(2H)-benzo[b]furan]]
  pIC50: 6.85

## NCc1ccc2c(c1)C1(CCN(C(=O)c3cccc(Sc4ncc(Cl)cn4)c3)CC1)CO2 [Cpd 21, 1-[3-(5-chloro-pyrimidin-2-yl)thiophenyl]carbonyl-5′-aminomethyl-spiro[piperidine-4,3′-(2H)-benzo[b]furan]]
  pIC50: 6.29

## NCc1ccc2c(c1)C1(CCN(C(=O)c3ccc(C(F)(F)F)o3)CC1)CO2 [Cpd 22, 1-(5-trifluoromethyl-furan-2-yl)carbonyl-5′-aminomethyl-spiro[piperidine-4,3′-(2H)-benzo[b]furan]]
  pIC50: 5.68

## NCc1ccc2c(c1)C1(CCN(C(=O)c3ccc(Sc4ccccc4)o3)CC1)CO2 [Cpd 23, 1-[(5-phenylthio)-furan-2-yl]carbonyl-5′-aminomethyl-spiro[piperidine-4,3′-(2H)-benzo[b]furan]]
  pIC50: 7.05

## Cc1ccc(C(=O)N2CCC3(CC2)COc2ccc(CN)cc23)cc1C [Cpd 24, 1-(3,4-dimethyl-phenyl)carbonyl-5′-aminomethyl-spiro[piperidine-4,3′-(2H)-benzo[b]furan]]
  pIC50: 6.82

## Cc1cc(C(=O)N2CCC3(CC2)COc2ccc(CN)cc23)ccc1Cl [Cpd 25, 1-(3-methyl-4-chloro-phenyl)carbonyl-5′-aminomethyl-spiro[piperidine-4,3′-(2H)-benzo[b]furan]]
  pIC50: 6.85

## NCc1ccc2c(c1)C1(CCN(C(=O)c3ccc(F)c(F)c3)CC1)CO2 [Cpd 26, 1-(3,4-difluoro-phenyl)carbonyl-5′-aminomethyl-spiro[piperidine-4,3′-(2H)-benzo[b]furan]]
  pIC50: 6.64

## NCc1ccc2c(c1)C1(CCN(C(=O)c3ccc(F)c(Cl)c3)CC1)CO2 [Cpd 27, 1-(3-chloro-4-fluoro-phenyl)carbonyl-5′-aminomethyl-spiro[piperidine-4,3′-(2H)-benzo[b]furan]]
  pIC50: 7.47

## COc1ccc(C(=O)N2CCC3(CC2)COc2ccc(CN)cc23)cc1Cl [Cpd 28, 1-(3-chloro-4-methoxy-phenyl)carbonyl-5′-aminomethyl-spiro[piperidine-4,3′-(2H)-benzo[b]furan]]
  pIC50: 6.92

## NCc1ccc2c(c1)C1(CCN(C(=O)c3cccc(Br)c3)CC1)CO2 [Cpd 29, 1-(3-bromo-phenyl)carbonyl-5′-aminomethyl-spiro[piperidine-4,3′-(2H)-benzo[b]furan]]
  pIC50: 6.89

## Cc1cc(C(=O)N2CCC3(CC2)COc2ccc(CN)cc23)ccc1Br [Cpd 30, 1-(3-methyl-4-bromo-phenyl)carbonyl-5′-aminomethyl-spiro[piperidine-4,3′-(2H)-benzo[b]furan]]
  pIC50: 6.85

## NCc1ccc2c(c1)C1(CCN(C(=O)c3ccc(F)c(Br)c3)CC1)CO2 [Cpd 31, 1-(3-bromo-4-fluoro-phenyl)carbonyl-5′-aminomethyl-spiro[piperidine-4,3′-(2H)-benzo[b]furan]]
  pIC50: 7.26

## COc1ccc(C(=O)N2CCC3(CC2)COc2ccc(CN)cc23)cc1Br [Cpd 32, 1-(3-bromo-4-methoxy-phenyl)carbonyl-5′-aminomethyl-spiro[piperidine-4,3′-(2H)-benzo[b]furan]]
  pIC50: 7.39

## NCc1ccc2c(c1)C1(CCN(C(=O)c3ccc(Br)c([N+](=O)[O-])c3)CC1)CO2 [Cpd 33, 1-(3-nitro-4-bromo-phenyl)carbonyl-5′-aminomethyl-spiro[piperidine-4,3′-(2H)-benzo[b]furan]]
  pIC50: 6.37

## NCc1ccc2c(c1)C1(CCN(C(=O)c3ccc(Cl)c(I)c3)CC1)CO2 [Cpd 34, 1-(3-iodo-4-chloro-phenyl)carbonyl-5′-aminomethyl-spiro[piperidine-4,3′-(2H)-benzo[b]furan]]
  pIC50: 7.70

## NCc1ccc2c(c1)C1(CCN(C(=O)c3ccc(C#Cc4ccccc4F)o3)CC1)CO2 [Cpd 35, 1-[5-(2-fluoro-phenylethynyl)-furan-2-yl]carbonyl-5′-aminomethyl-spiro[piperidine-4,3′-(2H)-benzo[b]furan]]
  pIC50: 8.37

## NCc1ccc2c(c1)C1(CCN(C(=O)c3ccccc3)CC1)CO2 [Cpd 36, 1-phenylcarbonyl-5′-aminomethyl-spiro[piperidine-4,3′-(2H)-benzo[b]furan]]
  pIC50: 6.09

## NCc1ccc2c(c1)C1(CCN(C(=O)C3CCCCC3)CC1)CO2 [Cpd 37, 1-cyclohexylcarbonyl-5′-aminomethyl-spiro[piperidine-4,3′-(2H)-benzo[b]furan]]
  pIC50: 6.14

## C[C@H]1CC[C@H](C(=O)N2CCC3(CC2)COc2ccc(CN)cc23)CC1 [Cpd 38, 1-(trans-4-methyl-cyclohexyl)carbonyl-5′-aminomethyl-spiro[piperidine-4,3′-(2H)-benzo[b]furan]]
  pIC50: 6.19

## NCc1ccc2c(c1)C1(CCN(C(=O)c3cccc(Cl)c3)CC1)CO2 [Cpd 39, 1-(3-chloro-phenyl)carbonyl-5′-aminomethyl-spiro[piperidine-4,3′-(2H)-benzo[b]furan]]
  pIC50: 5.43

## COc1ccc(C(=O)N2CCC3(CC2)COc2ccc(CN)cc23)cc1OC [Cpd 40, 1-(3,4-dimethoxy-phenyl)carbonyl-5′-aminomethyl-spiro[piperidine-4,3′-(2H)-benzo[b]furan]]
  pIC50: 6.60

## Cc1cccc(C(=O)N2CCC3(CC2)COc2ccc(CN)cc23)c1 [Cpd 41, 1-(3-methyl-phenyl)carbonyl-5′-aminomethyl-spiro[piperidine-4,3′-(2H)-benzo[b]furan]]
  pIC50: 6.33

## NCc1ccc2c(c1)C1(CCN(C(=O)c3cccc(F)c3)CC1)CO2 [Cpd 42, 1-(3-fluoro-phenyl)carbonyl-5′-aminomethyl-spiro[piperidine-4,3′-(2H)-benzo[b]furan]]
  pIC50: 6.44

## NCc1ccc2c(c1)C1(CCN(C(=O)c3ccc(F)cc3)CC1)CO2 [Cpd 43, 1-(4-fluoro-phenyl)carbonyl-5′-aminomethyl-spiro[piperidine-4,3′-(2H)-benzo[b]furan]]
  pIC50: 6.60

## NCc1ccc2c(c1)C1(CCN(C(=O)c3ccc(Cl)cc3)CC1)CO2 [Cpd 44, 1-(4-chloro-phenyl)carbonyl-5′-aminomethyl-spiro[piperidine-4,3′-(2H)-benzo[b]furan]]
  pIC50: 6.64

## CSc1ccc(C(=O)N2CCC3(CC2)COc2ccc(CN)cc23)cc1 [Cpd 45, 1-(4-methylthio-phenyl)carbonyl-5′-aminomethyl-spiro[piperidine-4,3′-(2H)-benzo[b]furan]]
  pIC50: 6.66

## NCc1ccc2c(c1)C1(CCN(C(=O)c3ccc(Cl)c(F)c3)CC1)CO2 [Cpd 46, 1-(3-fluoro-4-chloro-phenyl)carbonyl-5′-aminomethyl-spiro[piperidine-4,3′-(2H)-benzo[b]furan]]
  pIC50: 6.96

## NCc1ccc2c(c1)C1(CCN(C(=O)c3cccc(C(F)(F)F)c3)CC1)CO2 [Cpd 47, 1-(3-trifluoromethyl-phenyl)carbonyl-5′-aminomethyl-spiro[piperidine-4,3′-(2H)-benzo[b]furan]]
  pIC50: 6.09

## NCc1ccc2c(c1)C1(CCN(C(=O)c3cccc(I)c3)CC1)CO2 [Cpd 48, 1-(3-iodo-phenyl)carbonyl-5′-aminomethyl-spiro[piperidine-4,3′-(2H)-benzo[b]furan]]
  pIC50: 7.80

## NCc1ccc2c(c1)C1(CCN(C(=O)c3ccc(I)cc3)CC1)CO2 [Cpd 49, 1-(4-iodo-phenyl)carbonyl-5′-aminomethyl-spiro[piperidine-4,3′-(2H)-benzo[b]furan]]
  pIC50: 6.89

## Cc1ccc(C(=O)N2CCC3(CC2)COc2ccc(CN)cc23)cc1I [Cpd 50, 1-(3-iodo-4-methyl-phenyl)carbonyl-5′-aminomethyl-spiro[piperidine-4,3′-(2H)-benzo[b]furan]]
  pIC50: 7.44

## Cc1cc(C(=O)N2CCC3(CC2)COc2ccc(CN)cc23)ccc1I [Cpd 51, 1-(3-methyl-4-iodo-phenyl)carbonyl-5′-aminomethyl-spiro[piperidine-4,3′-(2H)-benzo[b]furan]]
  pIC50: 6.72

## COc1ccc(C(=O)N2CCC3(CC2)COc2ccc(CN)cc23)cc1I [Cpd 52, 1-(3-iodo-4-methoxy-phenyl)carbonyl-5′-aminomethyl-spiro[piperidine-4,3′-(2H)-benzo[b]furan]]
  pIC50: 7.66

## COc1cccc(C(=O)N2CCC3(CC2)COc2ccc(CN)cc23)c1 [Cpd 53, 1-(3-methoxy-phenyl)carbonyl-5′-aminomethyl-spiro[piperidine-4,3′-(2H)-benzo[b]furan]]
  pIC50: 6.06

## COc1ccc(C(=O)N2CCC3(CC2)COc2ccc(CN)cc23)cc1 [Cpd 54, 1-(4-methoxy-phenyl)carbonyl-5′-aminomethyl-spiro[piperidine-4,3′-(2H)-benzo[b]furan]]
  pIC50: 6.12

## CN(C)c1ccc(C(=O)N2CCC3(CC2)COc2ccc(CN)cc23)cc1 [Cpd 55, 1-(4-dimethylamino-phenyl)carbonyl-5′-aminomethyl-spiro[piperidine-4,3′-(2H)-benzo[b]furan]]
  pIC50: 6.00
